Reference: patent publication US20130064812A1, “COMBINATION THERAPIES FOR HEMATOLOGIC MALIGNANCIES” (Gilead Calistoga LLC, priority 2011, published 2013)
Where “and” joins values, the source holds several entries; their conditions need not be identical. Equal entries are not always repeated. Entries after “also recorded” stand apart in the source; their conditions may differ.

Columns and labels:
[1] = test system: primary MCL cells and MCL cell lines; assay: PI3K signaling in primary MCL cells and MCL cell lines; format: cell-based, human
[2] = test system: phospho-Akt(Ser473); assay: Constitutive Akt phosphorylation in leukemia and lymphoma cell lines (immunoblot); format: cell-based
Procedure: A large panel of leukemia and lymphoma cell lines was assessed for constitutive Akt phosphorylation. These cell lines represent B-lymphoma, T-lymphoma, ALL, Malignant histiocytosis, DLBCL and AML. […] Thereafter, cell were lysed, size-fractioned and immunoblotted with antibodies directed against phospho-Akt(Ser473).
The PI3K pathway is frequently deregulated in leukemia and lymphoma cell lines. […] In addition, PI3K pathway activation is dependent on p110δ.

[3] = target: PIP5Kα (Homo sapiens, UniProt Q99755); assay: InvitroGen Adapta kinase assay, PIP5Kα; format: biochemical; details: Other Phosphoinositide kinases; head prints no unit
[4] = test system: LB and INA-6 MM cells with BMSCs; assay: Paracrine MM cell growth, cytokine secretion and signaling with BMSCs; format: cell-based, human
Procedure: MM cells (2×10^4 cells/well) were cultured for 48 h in BMSC coated 96-well plates (Costar, Cambridge, Mass.), in the presence or absence of drug. DNA synthesis was measured by [3H]-thymidine (Perkin-Elmer, Boston, Mass.) uptake, with [3H]-thymidine (0.5μ Ci/well) added during the last 8 h of 48 h cultures. All experiments were performed in quadruplicate.
Cytokine secretion by human BMSCs cocultured with MM cells was assessed by ELISA. […] After 48 h, supernatants were harvested and stored at −80° C. Cytokines were measured using Duo set ELISA Development Kits (R&D Systems, Minneapolis, Minn.). All measurements were carried out in triplicate.
The cytokine levels in culture supernatants were assessed using Proteome Profiler Antibody Arrays Panel A (R&D Systems, Minneapolis, Minn.), Supernatants from co-cultures with BMSCs were incubated for 4 hours with membranes arrayed with Abs against 37 cytokines, according to manufacturer's instructions.
DNA synthesis was determined by [3H]-thymidine incorporation. Data represent means (±SD) of triplicate cultures.
Error bars indicate SD (±).
INA-6 cells cultured with or without BMSCs were treated with compound for 48 h. Total cell lysates were subjected to immunoblotting using indicated antibodies, FIG. 34F. Actin was used as a loading control.

[5] = test system: IGROV-1 and OVCAR-3 cell lines; assay: Proliferation of ovarian cancer cell lines (AlamarBlue); format: cell-based; details: IGROV-1, OVCAR-3, 48 hrs and 72 hrs
Procedure: IGROV-1 and OVCAR-3 cell lines were grown in the presence of serum plus the indicated concentrations of the compound of formula I. Proliferation was measured in triplicate wells by AlamarBlue assay (Invitrogen) 96-well plates.

[6] = test system: AKT (ser473), GSK3β (ser9); assay: AKT and GSK3β phosphorylation in CD19+ CLL cells with lenalidomide (immunoblot); details: 0.5 μM lenalidomide and/or 1 or 10 μM compound, 48 hours
Procedure: Immunoblots were performed.
AKT phosphorylation at ser473 was assessed by immunoblot.
GSK3β phosphorylation at ser9 was assessed by immunoblot. Results are shown from one of four experiments.
CD19+ cells from CLL patients (N=3) were transfected with siRNA targeted to PI3K-δ, PI3K-γ or a nonsense and then incubated with or without 0.5 μM lenalidomide for 48 hours. AKT phosphorylation at ser473 was assessed by immunoblot. Results are shown from one of three experiments.

[7] = human, in vivo
Procedure: This example provides data relating to the concentration of the compound of formula I in the blood of a healthy human subject on day 7. The concentration was monitored over a period of 12 hours, after oral administration of 50, 100, or 200 mg BID of the compound of formula I on day 7 of the study. FIG. 11 follows the plasma concentration of the drug over a period of 12 hours from administration.
In addition, single dose studies wherein 17-400 mg of the compound of formula I was administered in healthy volunteers was carried out.
Table 1, below, provides an overview of the subjects in the study, wherein either a singe dose (SD) or multiple dose (MD) of the compound of formula I is administered to a subject at varying amounts. The “n” values refer to the number of subjects in each group.

[8] = test system: CCRF-SB cells; assay: Cell cycle FACS analysis (propidium iodide); format: cell-based
Procedure: Representative fluorescence-activated cell sorting (FACS) analysis of propidium iodide-stained CCRF-SB cells under normal growth conditions, and growth in the presence of the compound of formula I. The average percentage of cells in G0-G1, S, and G2-M phases is calculated in the table below the histographs.

[9] = test system: leukemia cell lines; assay: cells; format: cell-based; details: for apoptosis in leukemia cell lines: 1 μM or 10 μM, 24 hrs; for cellular viability of leukemia cell lines: 24 hours
Procedure: Proliferation assays (AlamarBlue®) on ALL cell lines grown in the presence of 10% FBS serum and measurements were taken at 24 hrs. Proliferation was measured in triplicate wells in 96-well plates.
The percentage of apoptotic cells was determined by Annexin V-FITC/7AAD staining.

[10] = test system: HuVECs; assay: In vitro angiogenesis assay (tube formation); format: cell-based, human; details: 0, 1.0, or 10 μM, 8 h; p<0.05
Procedure: HUVEC and endothelial growth media were obtained from Lonza (Walkersville, Md., USA). […] After 8 h, tube formation was evaluated using Leika DM IL microscopy (Leica Microsystems, Wetzlar, Germany) and analyzed with IM50 software (Leica Microsystems Imaging Solutions, Cambridge, UK). HUVEC cell migration and rearrangement was visualized, and the number of branching points counted.
The effect of P110δ inhibition on angiogenesis was investigated.

[11] = target: PI3Kα (Mus musculus, UniProt P42337); assay: Isoform specific cell-based assay: PDGF induced pAKT in Swiss-3T3 fibroblasts; details: Fibroblast Cell Line, n = 12
Procedure: Swiss-3T3 fibroblasts and RAW-264 were seeded on a 96-well tissue culture plate and allowed to reach at least 90% confluency. […] Akt phosphorylation and total AKT was detected by ELISA. […] Results are expressed as relative [^3H] thymidine incorporation induced by IgM crosslinking.

[12] = test system: AKT and ERK1/2; assay: AKT and ERK1/2 in HuVEC (immunoblot); format: cell-based, human; details: 8 h
Text: Actin was used as a loading control.

Sequence of PI3Kα (P42337 whole entry, canonical isoform): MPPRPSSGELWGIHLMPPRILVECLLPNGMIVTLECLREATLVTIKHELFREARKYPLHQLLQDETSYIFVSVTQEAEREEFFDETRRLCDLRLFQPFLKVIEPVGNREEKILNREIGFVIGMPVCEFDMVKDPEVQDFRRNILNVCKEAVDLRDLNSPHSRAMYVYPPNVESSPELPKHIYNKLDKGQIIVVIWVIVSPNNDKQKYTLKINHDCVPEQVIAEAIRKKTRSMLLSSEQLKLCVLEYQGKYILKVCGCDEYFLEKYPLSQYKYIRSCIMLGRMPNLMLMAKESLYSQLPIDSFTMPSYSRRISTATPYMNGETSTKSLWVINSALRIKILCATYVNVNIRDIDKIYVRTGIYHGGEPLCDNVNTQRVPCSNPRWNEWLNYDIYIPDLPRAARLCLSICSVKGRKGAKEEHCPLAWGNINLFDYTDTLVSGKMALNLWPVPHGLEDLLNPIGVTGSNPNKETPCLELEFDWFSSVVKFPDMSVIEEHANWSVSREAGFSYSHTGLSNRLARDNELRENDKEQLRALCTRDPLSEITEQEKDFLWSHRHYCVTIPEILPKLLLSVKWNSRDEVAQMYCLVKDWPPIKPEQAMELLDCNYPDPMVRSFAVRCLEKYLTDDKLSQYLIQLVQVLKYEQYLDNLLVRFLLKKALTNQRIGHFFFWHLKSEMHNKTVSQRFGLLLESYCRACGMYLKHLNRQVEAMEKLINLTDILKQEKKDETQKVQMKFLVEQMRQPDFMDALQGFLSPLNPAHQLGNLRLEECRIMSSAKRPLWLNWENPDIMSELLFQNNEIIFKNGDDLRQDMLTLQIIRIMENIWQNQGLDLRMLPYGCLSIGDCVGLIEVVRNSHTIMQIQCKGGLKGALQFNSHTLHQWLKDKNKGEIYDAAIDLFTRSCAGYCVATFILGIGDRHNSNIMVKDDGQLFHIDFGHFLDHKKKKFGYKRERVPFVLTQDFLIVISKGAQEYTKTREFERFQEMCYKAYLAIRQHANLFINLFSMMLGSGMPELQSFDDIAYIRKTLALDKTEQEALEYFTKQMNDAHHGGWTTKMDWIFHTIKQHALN
Sequence of PI3Kα (P26450 whole entry partner, canonical isoform): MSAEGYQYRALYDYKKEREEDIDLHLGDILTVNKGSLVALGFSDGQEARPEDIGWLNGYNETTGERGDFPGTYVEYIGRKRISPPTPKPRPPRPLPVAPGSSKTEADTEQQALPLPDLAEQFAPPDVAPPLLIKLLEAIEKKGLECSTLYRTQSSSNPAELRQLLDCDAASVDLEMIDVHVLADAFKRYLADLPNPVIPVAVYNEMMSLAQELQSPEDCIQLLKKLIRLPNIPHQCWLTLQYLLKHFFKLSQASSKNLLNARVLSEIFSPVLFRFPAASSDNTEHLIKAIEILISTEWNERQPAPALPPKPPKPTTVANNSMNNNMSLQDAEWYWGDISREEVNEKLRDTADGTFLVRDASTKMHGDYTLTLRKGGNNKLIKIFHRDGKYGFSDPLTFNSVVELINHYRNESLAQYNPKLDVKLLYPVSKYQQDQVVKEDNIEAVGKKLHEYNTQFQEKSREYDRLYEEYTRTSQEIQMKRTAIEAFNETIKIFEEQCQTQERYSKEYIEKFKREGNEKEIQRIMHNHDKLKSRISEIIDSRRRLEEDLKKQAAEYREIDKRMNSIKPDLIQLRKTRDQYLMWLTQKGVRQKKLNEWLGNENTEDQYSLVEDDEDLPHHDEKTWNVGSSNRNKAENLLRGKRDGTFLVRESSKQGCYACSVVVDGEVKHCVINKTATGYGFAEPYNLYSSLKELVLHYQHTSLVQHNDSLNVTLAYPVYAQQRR
Sequence of PIP5Kα (Q99755 whole entry): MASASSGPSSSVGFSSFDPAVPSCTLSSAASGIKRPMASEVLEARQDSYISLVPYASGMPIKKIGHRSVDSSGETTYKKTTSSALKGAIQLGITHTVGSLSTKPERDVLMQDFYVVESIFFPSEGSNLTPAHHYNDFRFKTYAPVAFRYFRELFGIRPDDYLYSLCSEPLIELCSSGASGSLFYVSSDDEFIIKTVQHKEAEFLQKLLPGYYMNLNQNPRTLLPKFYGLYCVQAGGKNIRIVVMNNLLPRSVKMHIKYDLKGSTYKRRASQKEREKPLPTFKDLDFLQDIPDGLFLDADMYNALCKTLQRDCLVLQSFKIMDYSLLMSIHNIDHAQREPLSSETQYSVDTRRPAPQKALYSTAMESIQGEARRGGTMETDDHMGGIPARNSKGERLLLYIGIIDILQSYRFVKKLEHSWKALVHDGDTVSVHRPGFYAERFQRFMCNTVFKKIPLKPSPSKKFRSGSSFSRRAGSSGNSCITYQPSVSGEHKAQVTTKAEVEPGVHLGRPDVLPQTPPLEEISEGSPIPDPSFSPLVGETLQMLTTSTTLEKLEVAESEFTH

CC[C@H](Nc1ncnc2[nH]cnc12)c1nc2cccc(F)c2c(=O)n1-c1ccccc1 [Compound I, 5-fluoro-3-phenyl-2-[1-(9H-purin-6-ylamino)-propyl]-3H-quinazolin-4-one]
pAkt in MCL lines exposed to survival factors [1]: significant reduction of pAkt | constitutive PI3K signaling in primary MCL cells ([1]; two patients, 0.1 μM or 1 μM): block constitutive PI3K signaling in primary MCL cells of two patients in a dose dependent manner | cell lines in which constitutive AKT phosphorylation was inhibited ([2]; 10 μM, 2 hrs, B-cell and T-cell lymphomas included): 11 out of 11 | constitutive Akt(Ser473) phosphorylation ([2]; 2 hours treatment): inhibits Akt phosphorylation; also recorded: Reduction in Akt(Ser473) was achieved for all cell lines | cell lines in which constitutive AKT phosphorylation was inhibited ([2]; cell lines with constitutive p-AKT): 13 of 13 and 13 out of 13 | IC50 [3]: > 1000 nM | MM cell growth and cytokine secretion induced by BMSCs ([4]; 48 h): inhibited growth and cytokine secretion | phosphorylation of AKT and ERK induced by BMSCs ([4]; INA-6, 48 h): inhibited | proliferation of ovarian cancer cell lines [5]: cytotoxic to two ovarian cancer cell lines | proliferation of ovarian cancer cell lines ([5]; listed as compound of formula I): inhibits proliferation of ovarian cancer cell lines | AKT activation / phosphorylation (ser473) with lenalidomide [6]: resulted in prevention of PI3K activity | GSK3β phosphorylation (ser9) ([6]; N=4): preventable by co-treatment with the compound of formula I | concentration level versus PI3Kδ EC50 in basophil [7]: exceeds the PI3Kδ EC50 concentration in basophil for at least 12 hours | tolerability in normal healthy volunteers [7]: well tolerated at doses above commonly used therapeutic doses | cell cycle [8]: G0/G1 cell cycle arrest | apoptosis in leukemia cell lines [9]: increase in apoptosis in the treated cells | apoptosis in leukemia cell lines ([9]; listed as compound I): induces apoptosis in leukemia cell lines | cytotoxicity at 10 µM ([9]; 24 h, read-out: reduction of viability): 40 to 50% | cellular viability of leukemia cell lines [9]: strongly affected by 5-10 micromolar concentrations | cellular viability of leukemia cell lines ([9]; listed as compound I): reduces cellular viability in a dose dependent manner | capillary-like tube formation [10]: inhibited capillary-like tube formation in a dose-dependent fashion | EC50 [11]: > 20 µM | phosphorylation and expression of AKT and ERK1/2 in HuVEC [12]: markedly down regulated
